According to patent US12318435B2, “Recombinant protein produced from cholinesterase gene derived from Pseudomonas aeruginosa and the composition comprising the same for treating or preventing a neurological disease” (priority 2019, dated 2025):

Tests used:
Assay type in all cases: in vivo
choline = assay: Blood level of choline in pesticide-exposed animal model; conditions: serum of the mice of Experimental Example 2; for Level of blood acetylcholine, Concentration: absorbance 570 nm
Method: In order to determine the effect on the blood level of choline of the inventive NP protein in pesticide-exposed animal model, following test was performed by the procedure disclosed in the literature (Choline/Acetylcholine Quantification Colorimetric/Fluorometric Kit, Biovision incorporated 155 S Milpitas Boulevard, Milpitas, Calif. 95035 USA).
(§1) Specific pathogen-free female ICR mice (about 20 g, aged 6 weeks) were purchased from ORIENT Co. (Seoul, Korea) and acclimated with the experimental environment for 1 week.
(§2) The mice used in Experimental Example 2 intraperitoneally injected with […] of NP protein as a test sample group, were killed with carbon dioxide gas (Shinyang Oxygen Industry, Korea) and the blood was collected from the heart to isolate the serum.
The choline level of blood serum was determined Choline/Acetylcholine Quantification Colorimetric/Fluorometric Kit (Cat. No. K615-100, Biovision).
1 μL of serum was added to 49 μL of buffer solution in the kit and the reaction mixture containing […] of buffer solution, 2 μL of choline probe, 2 μL of ACHE and 2 μL of enzyme mixture solution was added thereto to react together in the shadow at 25° C. for 30 mins.
30 mins after the reaction, the absorbance of the reaction solution was determined at 570 nm using by spectrometer (Multiskan Go., Thermo Scientific) and the determined level was transformed into absolute value by comparing with the level of standard curve.
The level of choline was calculated according to following Math. 1 Blood Level of choline(nmole/mL or micromole)=(calculated level of choline through standard curve)/(the amount of samples in each well;mL). [Math. 1] 3-2. Test Result

ACHE activity = assay: Serum ACHE activity of pesticide-exposed mice; conditions: serum of the mice of Experimental Example 2; for ACHE activity, Concentration (mU/mL): 25° C., 570 nm
Method: as §1, §2
30 mins after the reaction, the absorbance of the reaction solution was determined at every 1 min at 570 nm using by spectrometer (Multiskan Go., Thermo Scientific) and the determined level was calculated according to following Math. […] [Math. 2] 4-2. Test Result

ICR mice = assay: Survival rate in pesticide-exposed animal model; conditions: female ICR mice, intraperitoneal; 250 μg NP protein, 30 μg carbofuran, 9 mg trichlorfon; NP 40 mins before pesticide; survival observed for 30 mins
Method: In order to determine the survival rate of the inventive NP protein on pesticide-exposed animal model, following test was performed by the procedure disclosed in the literature (Gupta, Ramesh C., ‘Carbofuran toxicity’, Journal of Toxicology and Environmental Health, Part A, 43:4, pp 383-418, 1994).
as §1
250 μg of NP protein was intraperitoneally injected to the mice as a test sample group to observe the behavior of the mice for 40 mins and 30 μg of carbofuran and 9 mg of trichlorfon were intraperitoneally injected to the mice to observe the survival rate of the mice for 30 mins.
The group intraperitoneally injected with only 30 μg of carbofuran or 9 mg of trichlorfon were used as positive control groups to observe the survival rate of the mice and the group intraperitoneally injected with only distilled water […] was used as a negative control group to observe the survival rate of the mice.

Row | Compound | amount of acetylcholine (in words) (choline) | Level of blood acetylcholine, Concentration (choline) [nmol/mL] | ACHE activity compared with negative control group (in words) (ACHE activity) | ACHE activity, Concentration (mU/mL) (ACHE activity) | Survival rate (%) (ICR mice)
1 | CNC(=O)Oc1cccc2c1OC(C)(C)C2 [Carbofuran] | sharply increased amount of acetylcholine | 1.8 | decreased ACHE activity | 463.8 | 0
2 | COP(=O)(OC)C(O)C(Cl)(Cl)Cl (stereo not shown) [Trichlorfon, trichlorfon] | sharply increased amount of acetylcholine | 1.4 | decreased ACHE activity | 117.7 | 60
